# Laboratory results taken from patent US12391991B2, “Markers to predict macrocyclic lactone drug resistance in Dirofilaria immitis, the causative agent of heartworm disease” (priority 2013, dated 2025).
# “Also recorded” adds a separate entry of the source. Read-outs that look alike come from different tables or passages of the source. Marks after values point to notes of the source that are not given here.
# Key:
# [1] = tested on: D. immitis microfilariae (LOE isolate case 4); settings: in vivo
# [2] = tested on: D. immitis (LOE isolate case 5); set-up: species or system Dirofilaria immitis; settings: in vivo
# [3] = tested on: D. immitis mf from dog Jd2009; format: cell-based, Dirofilaria immitis
# [4] = tested on: D. immitis microfilariae; set-up: species or system Dirofilaria immitis; settings: in vivo
# [5] = tested on: D. immitis Jd2009-2 isolate; set-up: species or system Dirofilaria immitis; settings: in vivo
# [6] = tested on: adult heartworms (D. immitis); set-up: species or system Dirofilaria immitis; settings: in vivo
# [7] = tested on: D. immitis (LOE isolate case 2); set-up: species or system Dirofilaria immitis; settings: in vivo
compound,measurement,setting,value
"CC[C@H](C)[C@H]1O[C@]2(CC[C@@H]1C)C[C@@H]1C[C@@H](C/C=C(\C)[C@@H](O[C@H]3C[C@H](OC)[C@@H](O[C@H]4C[C@H](OC)[C@@H](O)[C@H](C)O4)[C@H](C)O3)[C@@H](C)/C=C/C=C3\CO[C@@H]4[C@H](O)C(C)=C[C@@H](C(=O)O1)[C@]34O)O2 [IVM, ivermectin]",Knott's test,[1],again positive
same,Knott's tests,[1],both positive
same,mf status during weekly dosing,[2],remained positive for mf
same,Sensitivity of mf to drug,[3],significantly less sensitive
same,Knott's test result,[4],Knott's test +ve^a
same,Microfilaremic status,[4],remained continually microfilaremic; also recorded: still microfilaremic
same,Microfilariae concentration in blood,[4]; po,≥100^b mf/ml
"CO[C@H]1C[C@H](O[C@@H]2/C(C)=C/C[C@@H]3C[C@@H](C[C@]4(CC[C@H](C)[C@@H](C5CCCCC5)O4)O3)OC(=O)[C@@H]3C=C(C)/C(=N/O)[C@H]4OC/C(=C\C=C\[C@@H]2C)[C@]43O)O[C@@H](C)[C@@H]1O [SEL, selamectin]",Outcome of monthly chemoprophylaxis as recommended,[5],at least one dog in groups of four to six dogs on these heartworm preventatives became infected
CCN(CC)C(=O)N1CCN(C)CC1 [diethylcarbamazine],Blood smear,[1],no mf
same,Side effects of the treatment,[1],No side effects
Cl.Cl.NCCS[As](SCCN)c1ccc(Nc2nc(N)nc(N)n2)cc1 [melarsomine dihydrochloride],D. immitis antigen test,[6],negative
same,Antigen test Name-result (+ve or −ve),[6]; dihydrochloride,SNAP −ve^a; also recorded: DiroChek −ve^c; also recorded: PetChek −ve^a
milbemycin oxime [MO],Knott's test,[1]; po,positive
same,Heartworm antigen test,[2],positive heartworm antigen test
same,Knott's test result,[4],Knott's test +ve^a; also recorded: Knott's test +ve^c
same,Microfilaremic status,[4],remained continually microfilaremic
same,Microfilariae concentration in blood,[4],≥100^b mf/ml
same,Microfilariae in blood,[4],microfilariae were still present
same,Heartworm antigen status,[7],heartworm antigen positive
same,Outcome of monthly chemoprophylaxis as recommended,[5],at least one dog in groups of four to six dogs on these heartworm preventatives became infected
